Key:
Format in all cases: in vivo
[1] = system: common cutworm (Spodoptera Litura); assay: Insecticidal effect on common cutworm (Test Example 2); details: 500 ppm, 25° C.; for Insecticidal effect, Test Example 2: cabbage leaf immersed, eight days after inoculation; for Insecticidal effect (Test Example 2), judged from mortality: cabbage leaf dip, 8 days after inoculation
Method in brief: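 Mortality was scored 8 days post-inoculation, using three groups of 10 second-instar larvae kept at 25 °C in closed 9 cm dishes on air-dried treated material. The insecticidal effect was graded from calculated mortality by a set criterion.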

[2] = system: rice leafroller (Cnaphalocrocis medinalis); assay: Insecticidal effect on rice leafroller (Test Example 3); details: 500 ppm, 25° C., humidity 70%; for Insecticidal effect, Test Example 3: rice lamina immersed, four days after inoculation; for Insecticidal effect (Test Example 3), judged from mortality: rice lamina dip, 4 days after inoculation
Method in brief: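 Groups of 10 third-instar larvae, in triplicate, are placed on air-dried lamina resting on wet filter paper. Incubation runs four days at 25° C with 70% humidity before survivors and dead are tallied.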

[3] = system: diamondback moth (Plutella xylostella); assay: Insecticidal effect on diamondback moth (Test Example 1); details: diamondback moth; for Insecticidal effect (Test Example 1), judged from mortality: judged by the criterion of Test Example 1
Method in brief: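 Chinese cabbage seedlings carrying eggs laid by released adult moths were immersed in treatment, air-dried and held at 25° C. Hatched insects were counted six days after immersion, and mortality was calculated and scored against a fixed criterion. Three replicate groups of 10 insects were used.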

[4] = common cutworm second-instar larvae
[5] = rice leafroller third-instar larvae
[6] = mortality judged by criterion of Test Example 1
[7] = second-instar larvae of common cutworm
[8] = third-instar larvae of rice leafroller
[9] = judged by the mortality criterion of Test Example 1

Cc1cc(C(F)(F)C(F)(F)F)ccc1NC(=O)c1cccc(Cl)c1C(=O)NCc1ccccc1 [compound 1307]
Insecticidal effect, Test Example 2 [1, 4]: A (100) | Insecticidal effect, Test Example 3 [2, 5]: A (100) | Insecticidal effect, Test Example 1 [3, 6]: A (100)

Cc1ccccc1CNC(=O)c1c(I)cccc1C(=O)Nc1ccc(C(F)(F)C(F)(F)F)cc1C [compound 1404]
Insecticidal effect, Test Example 2 [1, 4]: C (89-80) | Insecticidal effect, Test Example 3 [2, 5]: A (100) | Insecticidal effect, Test Example 1 [3, 6]: A (100)

CC(C)NC(=O)c1c(I)cccc1C(=O)Nc1ccc(C(F)(C(F)(F)F)C(F)(F)F)cc1Cl [compound 1722]
Insecticidal effect (Test Example 2), judged from mortality [1, 7]: A (100) | Insecticidal effect (Test Example 3), judged from mortality [2, 8]: A (100) | Insecticidal effect (Test Example 1), judged from mortality [3]: A (100)

Cc1cc(C(F)(F)C(F)(F)F)ccc1NC(=O)c1cccc(Cl)c1C(=O)NCc1ccc(OC(F)(F)F)cc1 [compound 1576]
Insecticidal effect (Test Example 2), judged from mortality [1, 7]: D (79-50) | Insecticidal effect (Test Example 3), judged from mortality [2, 8]: A (100) | Insecticidal effect (Test Example 1), judged from mortality [3]: A (100)

Cc1cc(C(F)(C(F)(F)F)C(F)(F)F)ccc1NC(=O)c1ccc(F)c(Cl)c1C(=O)NC(C)C [compound 1229]
Insecticidal effect, Test Example 2 [1, 4]: A (100) | Insecticidal effect, Test Example 3 [2, 5]: A (100) | Insecticidal effect, Test Example 1 [3, 6]: A (100)

CC(C)(C)NC(=O)c1c(I)cccc1C(=O)Nc1ccc(C(F)(F)C(F)(F)F)cc1Cl [compound 1428]
Insecticidal effect, Test Example 2 [1, 4]: A (100) | Insecticidal effect, Test Example 3 [2, 5]: A (100) | Insecticidal effect, Test Example 1 [3, 6]: A (100)

Cc1cc(OC(F)(F)F)ccc1NC(=O)c1cccc(I)c1C(=O)NC(C)(C)CCl [compound 1627]
Insecticidal effect (Test Example 2), judged from mortality [1, 7]: A (100) | Insecticidal effect (Test Example 3), judged from mortality [2, 8]: A (100) | Insecticidal effect (Test Example 1), judged from mortality [3]: A (100)

CCNC(=O)c1cccc(I)c1C(=O)Nc1ccc(C(F)(F)C(F)(F)F)cc1C [compound 1314]
Insecticidal effect, Test Example 2 [1, 4]: A (100) | Insecticidal effect, Test Example 3 [2, 5]: A (100) | Insecticidal effect, Test Example 1 [3, 6]: A (100)

CC(C)NC(=O)c1c(Cl)cccc1C(=O)Nc1ccc(SC(F)(F)C(F)F)cc1 [compound 102]
Insecticidal effect, Test Example 2 [1, 7]: D (79-50) | Insecticidal effect, Test Example 3 [2, 8]: A (100) | Insecticidal effect, Test Example 1 [3, 9]: A (100)

CCN(CC)C(=O)c1c(C(=O)Nc2ccc(C(F)(C(F)(F)F)C(F)(F)F)cc2C)cccc1[N+](=O)[O-] [compound 1119]
Insecticidal effect, Test Example 2 [1, 4]: A (100) | Insecticidal effect, Test Example 3 [2, 5]: A (100) | Insecticidal effect, Test Example 1 [3, 6]: A (100)

CC(C)(C)NC(=O)c1ccccc1C(=O)Nc1ccc2c(c1)OC(F)(F)C(F)O2 (stereo not drawn) [compound 1165]
Insecticidal effect, Test Example 2 [1, 4]: A (100) | Insecticidal effect, Test Example 3 [2, 5]: A (100) | Insecticidal effect, Test Example 1 [3, 6]: A (100)

Cc1cc(OC(F)(F)C(F)F)ccc1NC(=O)c1cccc(C(F)(F)F)c1C(=O)NC(C)C [compound 1206]
Insecticidal effect, Test Example 2 [1, 4]: A (100) | Insecticidal effect, Test Example 3 [2, 5]: A (100) | Insecticidal effect, Test Example 1 [3, 6]: A (100)

CC(C)NC(=O)c1c(Cl)cccc1C(=O)Nc1ccc(OC(F)(F)F)cc1Cl [compound 135]
Insecticidal effect, Test Example 2 [1, 7]: A (100) | Insecticidal effect, Test Example 3 [2, 8]: A (100) | Insecticidal effect, Test Example 1 [3, 9]: A (100)

Cc1cc([S+]([O-])C(F)(F)F)ccc1NC(=O)c1cccc(I)c1C(=O)NC(C)C (stereo not drawn) [compound 1168]
Insecticidal effect, Test Example 2 [1, 4]: A (100) | Insecticidal effect, Test Example 3 [2, 5]: A (100) | Insecticidal effect, Test Example 1 [3, 6]: A (100)

C#CC(C)(C)NC(=O)c1c(I)cccc1C(=O)Nc1ccc(C(F)(F)C(F)(F)F)cc1C [compound 1629]
Insecticidal effect (Test Example 2), judged from mortality [1, 7]: A (100) | Insecticidal effect (Test Example 3), judged from mortality [2, 8]: A (100) | Insecticidal effect (Test Example 1), judged from mortality [3]: A (100)

CC(C)(C)NC(=O)c1c(I)cccc1C(=O)Nc1ccc(Cl)c2c1OC(F)(F)O2 [compound 1747]
Insecticidal effect (Test Example 2), judged from mortality [1, 7]: C (89-80) | Insecticidal effect (Test Example 3), judged from mortality [2, 8]: A (100) | Insecticidal effect (Test Example 1), judged from mortality [3]: A (100)

CC(C)NC(=O)c1c(Cl)cccc1C(=O)Nc1ccc(C(F)(F)F)cc1Cl [compound 125]
Insecticidal effect, Test Example 2 [1, 7]: B (99-90) | Insecticidal effect, Test Example 3 [2, 8]: A (100) | Insecticidal effect, Test Example 1 [3, 9]: A (100)

Cc1cc(C(F)(F)C(F)(F)F)ccc1NC(=O)c1cccc(Cl)c1C(=O)NC(C)c1ccccc1Cl (stereo not drawn) [compound 1362]
Insecticidal effect, Test Example 2 [1, 4]: A (100) | Insecticidal effect, Test Example 3 [2, 5]: A (100) | Insecticidal effect, Test Example 1 [3, 6]: A (100)
